From patent US7148380B2, “Bio-energy muscle relaxants” (priority 2000, dated 2006)
Where “and” joins values, the source holds several entries; their conditions need not be identical. Equal values may be shown once. Read-outs that look alike come from different tables or passages of the source.

Assays:
[1] = test system: isolated colon tissues from guinea pigs; assay: Isolated colon smooth muscle contraction induced by BaCl2; set-up: species or system guinea pig
From the text: To investigate this effect, 14 guinea pigs (provided by the Center of Experimental Animals, First Military Medical University, Guangzhou, China, certificate No. 99A047) with body weight of 240±20 g were used for the study. Following sacrifice of the animal by cervical dislocation, the colon was isolated within Botting solution, a segment of the colon in 2 cm length was taken to mount on the equipment—one end connected to a force transducer, the other end fixed at the bottom of the organ water-bath (DC-001 Organ Bath, made in Nanjin, China) containing oxygenated nutritious solution at 37° C.
Group “t” test was then made. Significance is considered to be established when P<0.05
The animals were divided as test group and control (placebo) group.
Where Fc is force of the smooth muscle contraction.
Paired group “t” test was made to compare contraction force after BDM and distilled water to determine whether there is a significant difference between the two groups.

[2] = test system: drug-induced asthma in guinea pig; assay: Asthmatic latent period / drug-induced asthma in guinea pig (acetylcholine + histamine inhalation); assay type: in vivo
Experimental: Sensitive animals were chosen by aerosolized inhalation of asthma-inducing agents—a mixed solution of 2% acetylcholine with 0.1% histamine for 15 sec., inducing an asthmatic attack with severe difficulty in respiration and finally resulting in the animal body turned down. The time from beginning of the inhalation to animal turned down was recorded as an index named “turned down time” or asthmatic latent period. Those animals with turned down time less than 120 s. were selected for the study next day. […] Then the latent period was recorded for each of the animals.
(1) Screening animals: animal was put in a glass container, a mixed solution of 2% acetylcholine and 0.1% histamine was nebulized with a pressure of 400 mmHg and inhaled by the animals for 15 sec. Following the end of the inhalation, the time between beginning of the inhalation and the animal turned down due to bronchial spasm and dyspnea was recorded as asthmatic latent period. Those animals with a latent period beyond 120 s. were excluded, and those with a latent period less than 120 s were selected for study the next day.
(4) Measuring: Repeat the inhalation at 30 min, 4 h, and 24 h after administration of the drugs respectively. Asthmatic latent period was recorded, 6 minutes were taken as the maximum, and values beyond 6 min were counted as 6 min.
(5) Data analysis: Values were expressed as mean±sd, and paired for “t” and chi-square tests. Significance was considered to be established when p<0.05.

[3] = test system: hypertension induced by aramine; assay: Aramine-induced hypertension, curative test; assay type: in vivo, SD rats
Experimental: (§1) Eighteen (18) SD rats (provided by the Center of Experimental Animals, First Military Medical University, Guang Zhou, China, Certificate No. 99A046) with body weight of 200–250 g were used for the study. The animal was anesthetized with urethane (1.4 g/kg, I.P.), then the main cervical artery was exposed and cannulated, blood pressure was monitored during the experiment. After a 30-minute stabilization period after the operation, normal blood pressure curves were recorded.

[4] = test system: hypertension induced by aramine; assay: Aramine-induced hypertension, preventive test; assay type: in vivo, SD rats
Experimental: as §1

[5] = test system: convulsion induced by strychnine; assay type: in vivo, NIH mice; settings: for Convulsion / The latent period / Convulsion-Death time / Death: n=12; for The latent period / Convulsion-Death time: mean±SD; for Convulsion-Death time: P<0.01 vs control
Experimental: To investigate the effect, 36 mice (provided by the Center of Experimental Animals, Provincial Health Department, Guangdong, China, Certificate No. 99A030) were used for the study, the animals were grouped as placebo, preventing, and treatment groups. Muscle convulsion was induced with injection of strychnine (1.5 mg/kg I.P., injection product of 2 mg/ml, He Feng Pharmaceutical Co., Shanghai, China, Lot. No. 990701), the beginning and lasting time of the convulsion were recorded.
Half male and female healthy NIH mice with body weight of 20±2 g were selected for the study. The animals were randomly divided into three groups as protective, curative, and control (saline). […] In the control group, saline (20 ml/kg, I.P.) was administered 0.5 h before the strychnine. Immediately following the injection of strychnine, convulsion latent period and the time from beginning of convulsion to death of the animal were recorded. […] (see Table 7).

[6] = 10 ml/kg I.P. (BDM 0.2M, aminophylline 1.25%), mean±sd
[7] = BDM 0.2 M, 10 ml/kg, I.P. after aramine
[8] = control fluctuating within ±15 mmHg
[9] = curative: BDM immediately after strychnine
[10] = preventive: BDM 0.5 h prior to strychnine

SMILES: CC(=O)C(C)=NO [BDM, 2,3-butanedione monoxime]
- Contraction force, After ([1]; BaCl2 0.67 g/L, 10 min after BDM 0.2M, 20 ml/L nutritious sol., single preparations): 1.70 g and 1.35 g and 1.45 g and 1.75 g and 2.20 g
- Contraction force, Before ([1]; BaCl2 0.67 g/L, before BDM, single colon preparations of the test group): 2.35 g and 2.30 g and 2.45 g and 2.70 g and 2.90 g
- Contraction Rate ([1]; force after / before BDM 0.2M, 20 ml/L, single preparations): 72.3% and 58.7% and 61.7% and 76.1% and 69.4% and 64.8% and 75.9%
- Asthamatic Latent Period, 4 hours after administration [2, 6]: 99.2 ± 42.1 s
- Asthamatic Latent Period, 24 hours after administration [2, 6]: 81.8 ± 11.0 s
- Incidence of asthmatic spasm ([2]; 30 min after administration, down from 100%, not significant): 60%
- Asthamatic Latent Period, before administration ([2]; baseline before drug, 10 ml/kg I.P. (BDM 0.2M, aminophylline 1.25%), mean±sd): 70.4 ± 21.1 s
- Effect on the latent period ([2]; four and 24 h after administration): no significant effect
- Diastolic pressure 2 min. after BDM administration [3, 7]: 73.8 ± 4.9^★★ mmHg
- Diastolic pressure 5 min. after BDM administration [3, 7]: 77.0 ± 9.1^★★ mmHg
- Diastolic pressure 10 min. after BDM administration [3, 7]: 76.3 ± 5.2^★★ mmHg
- Systolic pressure 2 min. after BDM administration [3, 7]: 123.7 ± 6.0^★★ mmHg
- Systolic pressure 5 min. after BDM administration [3, 7]: 128.3 ± 5.2^★★ mmHg
- Systolic pressure 10 min. after BDM administration [3, 7]: 130.5 ± 4.2^★★ mmHg
- Diastolic pressure, Blood Pressure before ([3]; baseline, mean±SD, n=6–7): 74.0 ± 15.4 mmHg
- Systolic pressure, Blood Pressure before ([3]; baseline, mean±SD, n=6–7): 123.3 ± 10.1 mmHg
- Diastolic pressure 2 min. after aramin administration ([3]; before BDM): 121.5 ± 5.5 mmHg
- Diastolic pressure 5 min. after aramin administration ([3]; before BDM): 122.2 ± 5.1 mmHg
- Diastolic pressure 10 min. after aramin administration ([3]; before BDM): 117.7 ± 9.5 mmHg
- Systolic pressure 2 min. after aramin administration ([3]; before BDM): 182.7 ± 6.0 mmHg
- Systolic pressure 5 min. after aramin administration ([3]; before BDM): 183.5 ± 5.5 mmHg
- Systolic pressure 10 min. after aramin administration ([3]; before BDM): 181.8 ± 6.4 mmHg
- Average decrease of diastolic blood pressure after BDM administration [3, 8]: 42 mmHg
- Average decrease of systolic blood pressure after BDM administration [3, 8]: 54 mmHg
- Diastolic pressure 2 minutes after BDM administration ([4]; BDM 0.2 M, 10 ml/kg, I.P.): 39.7 ± 6.4^★★ mmHg
- Diastolic pressure 5 minutes after BDM administration ([4]; BDM 0.2 M, 10 ml/kg, I.P.): 39.0 ± 8.7^★★ mmHg
- Diastolic pressure 10 minutes after BDM administration ([4]; BDM 0.2 M, 10 ml/kg, I.P.): 43.0 ± 8.5^★★ mmHg
- Systolic pressure 2 minutes after BDM administration ([4]; BDM 0.2 M, 10 ml/kg, I.P.): 88.0 ± 5.2^★★ mmHg
- Systolic pressure 5 minutes after BDM administration ([4]; BDM 0.2 M, 10 ml/kg, I.P.): 84.0 ± 6.7^★★ mmHg
- Systolic pressure 10 minutes after BDM administration ([4]; BDM 0.2 M, 10 ml/kg, I.P.): 88.2 ± 7.7^★★ mmHg
- Diastolic pressure 2 minutes after aramine administration ([4]; BDM given before aramine): 76.2 ± 21.5^★★ mmHg
- Diastolic pressure 5 minutes after aramine administration ([4]; BDM given before aramine): 76.5 ± 11.9^★★ mmHg
- Diastolic pressure 10 minutes after aramine administration ([4]; BDM given before aramine): 77.0 ± 22.4^★★ mmHg
- Systolic pressure 5 minutes after aramine administration ([4]; BDM given before aramine): 127.5 ± 16.1^★★ mmHg
- Systolic pressure 10 minutes after aramine administration ([4]; BDM given before aramine): 127.7 ± 17.3^★★ mmHg
- Systolic pressure 2 minutes after aramine administration ([4]; BDM given before aramine 30 μg/ml, 0.4 ml/min I.V.): 126.3 ± 16.1^★★ mmHg
- Diastolic pressure, Blood Pressure before ([4]; baseline, mean±SD, n=6–7): 68.7 ± 8.8 mmHg
- Systolic pressure, Blood Pressure before ([4]; baseline, mean±SD, n=6–7): 117.3 ± 3.2 mmHg
- Diastolic blood pressure following aramine administration in BDM group ([4]; control about 120): ~75 mmHg
- Systolic blood pressure following aramine administration in BDM group ([4]; control about 185): about 125 mmHg
- Diastolic blood pressure after administration of BDM ([4]; down from 68, approximately): ~40 mmHg
- Systolic blood pressure after administration of BDM ([4]; down from 117, approximately): ~84 mmHg
- Convulsion ([5]; curative: BDM 0.2M, 20 ml/kg I.P. immediately after strychnine 1.5 mg/kg I.P.): 100%
- The latent period [5, 9]: 134.2 ± 31.5 s
- Convulsion-Death time [5, 9]: 538.3±169.3 s and 538.3 ± 169.3^★★ s
- Death [5, 9]: 100%
- Behaviour of the animals after administration of BDM ([5]; mice, BDM 0.2M, 20 ml/kg, I.P.): reducing activities, difficulties in action and toddling
- Convulsion ([5]; preventive: BDM 0.2M, 20 ml/kg I.P. 0.5 h prior to strychnine 1.5 mg/kg I.P.): 100%
- The latent period [5, 10]: 183.8 ± 32.6 s
- Convulsion-Death time [5, 10]: 496.3±285.3 s and 496.3 ± 285.3^★★ s
- Death [5, 10]: 100%
